Molecules are shown by their SMILES.

What is called EC50 is the concentration giving half of the maximal effect.

This assay concerns the target T1, α4β7 integrin interaction with MadCAM-1 (RPMI8866 cells) (Homo sapiens, UniProt P13612+P26010).
T1 construct: α4β7 integrin expressing cells; endogenous in cells; host or cells: RPMI8866 cells
T1 sequence (P13612 34-1032): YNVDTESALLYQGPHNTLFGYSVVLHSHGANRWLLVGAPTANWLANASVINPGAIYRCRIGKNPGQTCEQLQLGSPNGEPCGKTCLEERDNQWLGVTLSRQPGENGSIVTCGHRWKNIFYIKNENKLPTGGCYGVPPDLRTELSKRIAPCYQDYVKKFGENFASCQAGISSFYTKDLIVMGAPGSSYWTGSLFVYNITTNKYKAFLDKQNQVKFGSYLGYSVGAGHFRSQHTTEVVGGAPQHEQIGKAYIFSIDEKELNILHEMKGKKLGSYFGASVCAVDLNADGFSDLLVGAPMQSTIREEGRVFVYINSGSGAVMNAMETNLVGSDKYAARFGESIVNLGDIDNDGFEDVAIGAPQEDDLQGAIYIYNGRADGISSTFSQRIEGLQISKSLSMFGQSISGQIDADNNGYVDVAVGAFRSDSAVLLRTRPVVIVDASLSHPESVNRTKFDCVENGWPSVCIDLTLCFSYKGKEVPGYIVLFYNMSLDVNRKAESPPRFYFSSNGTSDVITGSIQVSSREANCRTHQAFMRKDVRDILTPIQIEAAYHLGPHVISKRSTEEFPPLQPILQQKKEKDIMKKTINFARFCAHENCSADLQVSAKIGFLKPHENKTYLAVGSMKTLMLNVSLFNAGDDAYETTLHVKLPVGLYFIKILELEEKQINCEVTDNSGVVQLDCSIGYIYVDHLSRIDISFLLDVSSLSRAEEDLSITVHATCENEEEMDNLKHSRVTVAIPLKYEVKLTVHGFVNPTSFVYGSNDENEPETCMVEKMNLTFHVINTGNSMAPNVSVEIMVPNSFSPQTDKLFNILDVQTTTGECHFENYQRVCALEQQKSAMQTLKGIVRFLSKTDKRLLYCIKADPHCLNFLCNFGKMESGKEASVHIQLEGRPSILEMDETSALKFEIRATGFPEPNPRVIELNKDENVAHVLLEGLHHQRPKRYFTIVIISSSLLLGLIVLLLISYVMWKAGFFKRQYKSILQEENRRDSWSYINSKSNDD
T1 sequence (P26010 20-798): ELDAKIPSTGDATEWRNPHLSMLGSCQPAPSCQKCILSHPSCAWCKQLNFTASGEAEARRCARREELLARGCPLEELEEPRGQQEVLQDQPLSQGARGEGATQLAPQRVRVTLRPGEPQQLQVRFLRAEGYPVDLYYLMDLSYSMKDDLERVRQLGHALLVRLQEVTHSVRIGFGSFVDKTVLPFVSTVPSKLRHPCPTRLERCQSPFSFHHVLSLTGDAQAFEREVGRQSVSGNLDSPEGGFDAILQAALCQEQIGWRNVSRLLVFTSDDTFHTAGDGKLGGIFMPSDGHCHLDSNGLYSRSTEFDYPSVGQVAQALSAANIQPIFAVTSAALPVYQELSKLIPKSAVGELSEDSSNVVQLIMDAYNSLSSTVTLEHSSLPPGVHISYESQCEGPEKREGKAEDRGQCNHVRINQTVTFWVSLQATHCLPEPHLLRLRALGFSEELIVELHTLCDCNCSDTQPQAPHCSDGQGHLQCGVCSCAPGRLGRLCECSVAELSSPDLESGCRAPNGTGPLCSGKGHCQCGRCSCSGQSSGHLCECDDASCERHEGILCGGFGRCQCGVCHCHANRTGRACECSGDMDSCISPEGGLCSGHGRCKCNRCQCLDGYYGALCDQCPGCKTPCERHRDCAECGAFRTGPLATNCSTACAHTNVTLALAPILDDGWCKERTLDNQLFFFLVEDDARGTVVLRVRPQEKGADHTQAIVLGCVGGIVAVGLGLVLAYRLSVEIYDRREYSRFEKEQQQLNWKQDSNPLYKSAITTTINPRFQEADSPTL
Briefly: α4β7 Integrin Cell Capture Assay. It is filed as cell-based. The following applies: capture of α4β7 integrin expressing RPMI8866 cells on recombinant MadCAM-1 extracellular domain-coated plate; 0.5 mM MnCl2. Put shortly:
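RPMI8866 cells (0.5×10^6 cells/mL in DMEM + 0.5% FBS + 0.5 mM MnCl2) preincubated with compound 1 h at 37 °C, then allowed to adhere 30 min at 37 °C to plates coated with MAdCAM-1 extracellular domain (1.0 μg/mL). Bound cells fixed with 2% glutaraldehyde, Hoechst-stained, imaged and counted; EC50 from cell count versus concentration.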
Take `Cc1c(-c2ccc(C[C@H](NC(=O)c3c(F)cccc3F)C(=O)O)c3c2CCOC3)c(=O)n(C)c2ccc(F)cc12` [Example 35, (S)-2-(2,6-difluorobenzamido)-3-(5-(6-fluoro-1,4-dimethyl-2-oxo-1,2-dihydroquinolin-3-yl)isochroman-8-yl)propanoic acid]: the EC50 came out at 1.96 nM.

With `Cn1c(=O)c(-c2ccc(C[C@H](NC(=O)c3c(Cl)cccc3Cl)C(=O)O)c3c2OC(C)(C)C3)cc2ccccc21` [Example 38, (S)-2-(2,6-dichlorobenzamido)-3-(2,2-dimethyl-7-(1-methyl-2-oxo-1,2-dihydroquinolin-3-yl)-2,3-dihydrobenzofuran-4-yl)propanoic acid], the EC50 turned out to be 20.6 nM. `CC[C@@H](Nc1cc(F)c(C(=O)N[C@@H](Cc2ccc(-c3c(C(F)(F)F)cc(C)n(C)c3=O)c3c2CCCO3)C(=O)O)c(F)c1)C(F)(F)F` [Example 43, (S)-2-(2,6-difluoro-4-(((R)-1,1,1-trifluorobutan-2-yl)amino)benzamido)-3-(8-(1,6-dimethyl-2-oxo-4-(trifluoromethyl)-1,2-dihydropyridin-3-yl)chroman-5-yl)propanoic acid]: the EC50 is 0.633 nM. Next, `COc1cc(C)n(C)c(=O)c1-c1ccc(C[C@H](NC(=O)c2c(F)cc(N3CCOC[C@@H]3C(F)(F)F)cc2F)C(=O)O)c2c1OCCC2` [Example 46, (S)-2-(2,6-difluoro-4-((R)-3-(trifluoromethyl)morpholino)benzamido)-3-(8-(4-methoxy-1,6-dimethyl-2-oxo-1,2-dihydropyridin-3-yl)chroman-5-yl)propanoic acid]: 0.25 nM; `CC[C@@H](Nc1cc(F)c(C(=O)N[C@@H](Cc2ccc(-c3c(OC)cc(C)n(C)c3=O)c3c2CCCO3)C(=O)O)c(F)c1)C(F)(F)F` [Example 47, (S)-2-(2,6-difluoro-4-(((R)-1,1,1-trifluorobutan-2-yl)amino)benzamido)-3-(8-(4-methoxy-1,6-dimethyl-2-oxo-1,2-dihydropyridin-3-yl)chroman-5-yl)propanoic acid]: 0.58 nM; `COc1cc(C)n(C)c(=O)c1-c1ccc(C[C@H](NC(=O)c2c(F)cc(N[C@H](C)C(F)(F)F)cc2F)C(=O)O)c2c1OCCC2` [Example 48, (S)-2-(2,6-difluoro-4-(((R)-1,1,1-trifluoropropan-2-yl)amino)benzamido)-3-(8-(4-methoxy-1,6-dimethyl-2-oxo-1,2-dihydropyridin-3-yl)chroman-5-yl)propanoic acid]: 1.23 nM. `CC[C@@H](Nc1cc(F)c(C(=O)N[C@@H](Cc2ccc(-c3nc(C)c(C)n(C)c3=O)c3c2CCCO3)C(=O)O)c(F)c1)C(F)(F)F` [Example 49, (S)-2-(2,6-difluoro-4-(((R)-1,1,1-trifluorobutan-2-yl)amino)benzamido)-3-(8-(4,5,6-trimethyl-3-oxo-3,4-dihydropyrazin-2-yl)chroman-5-yl)propanoic acid]: the EC50 came out at 0.83 nM.

Consider `C[C@@H](Nc1cc(F)c(C(=O)N[C@@H](Cc2ccc(-c3c(Cl)cc(F)cc3Cl)c3c2CCCO3)C(=O)O)c(F)c1)C(F)(F)F` [Example 50, (S)-3-(8-(2,6-dichloro-4-fluorophenyl)chroman-5-yl)-2-(2,6-difluoro-4-(((R)-1,1,1-trifluoropropan-2-yl)amino)benzamido)propanoic acid], for which the EC50 came to 43.4 nM. Next, `O=C(N[C@@H](Cc1ccc(-c2c(Cl)cc(F)cc2Cl)c2c1OCCN2)C(=O)O)c1c(F)cccc1F` [Example 51, (S)-3-(5-(2,6-dichloro-4-fluorophenyl)-3,4-dihydro-2H-benzo[b][1,4]oxazin-8-yl)-2-(2,6-difluorobenzamido)propanoic acid]: 34 nM; `CC[C@@H](Nc1cc(F)c(C(=O)N[C@@H](Cc2ccc(-c3c(C)cc(C)n(C)c3=O)c3c2CCCO3)C(=O)O)c(F)c1)C(F)(F)F` [Example 52, (S)-2-(2,6-difluoro-4-(((R)-1,1,1-trifluorobutan-2-yl)amino)benzamido)-3-(8-(1,4,6-trimethyl-2-oxo-1,2-dihydropyridin-3-yl)chroman-5-yl)propanoic acid]: 1.63 nM. `Cc1cc(C)n(C)c(=O)c1-c1ccc(C[C@H](NC(=O)c2c(F)cc(N[C@H](C)C(F)(F)F)cc2F)C(=O)O)c2c1OCCC2` [Example 53, (S)-2-(2,6-difluoro-4-(((R)-1,1,1-trifluoropropan-2-yl)amino)benzamido)-3-(8-(1,4,6-trimethyl-2-oxo-1,2-dihydropyridin-3-yl)chroman-5-yl)propanoic acid]: the EC50 was 3.28 nM. As to `CC[C@@H](Nc1cc(F)c(C(=O)N[C@@H](Cc2ccc(-c3c(C)n(C)c(=O)n(C)c3=O)c3c2CCCO3)C(=O)O)c(F)c1)C(F)(F)F` [Example 54, (S)-2-(2,6-difluoro-4-(((R)-1,1,1-trifluorobutan-2-yl)amino)benzamido)-3-(8-(1,3,6-trimethyl-2,4-dioxo-1,2,3,4-tetrahydropyrimidin-5-yl)chroman-5-yl)propanoic acid], the EC50 came out at 0.607 nM. Next, `Cc1c(-c2ccc(C[C@H](NC(=O)c3c(F)cccc3F)C(=O)O)c3c2OCCC3)c(=O)n(C)c2ccccc12` [Example 57, (S)-2-(2,6-difluorobenzamido)-3-(8-(1,4-dimethyl-2-oxo-1,2-dihydroquinolin-3-yl)chroman-5-yl)propanoic acid]: 4.19 nM; `Cc1c(-c2ccc(C[C@H](NC(=O)c3c(Cl)cccc3Cl)C(=O)O)c3c2OCCC3)c(=O)n(C)c2ccccc12` [Example 60, (S)-2-(2,6-dichlorobenzamido)-3-(8-(1,4-dimethyl-2-oxo-1,2-dihydroquinolin-3-yl)chroman-5-yl)propanoic acid]: 4.12 nM.

With `O=C(N[C@@H](Cc1ccc(-c2ncc3ccccc3c2Br)c2c1CCCO2)C(=O)O)c1c(Cl)cccc1Cl` [Example 63, (S)-3-(8-(4-bromoisoquinolin-3-yl)chroman-5-yl)-2-(2,6-dichlorobenzamido) propanoic acid], the EC50 is 7.99 nM. In the case of `O=C(N[C@@H](Cc1ccc(-c2cc(F)c(F)cc2OC2CC2)c2c1CCCO2)C(=O)O)c1c(Cl)cccc1Cl` [Example 64, (S)-3-(8-(2-cyclopropoxy-4,5-difluorophenyl)chroman-5-yl)-2-(2,6-dichlorobenzamido)propanoic acid], the EC50 was 110 nM. With `O=C(N[C@@H](Cc1ccc(-c2ncc3ccccc3c2Br)c2c1CCCO2)C(=O)O)c1c(F)cccc1F` [Example 65, (S)-3-(8-(4-bromoisoquinolin-3-yl)chroman-5-yl)-2-(2,6-difluorobenzamido)propanoic acid], the EC50 stood at 19.6 nM. As to `O=C(N[C@@H](Cc1ccc(-c2cccc3c2OCCC3)c2c1CCCO2)C(=O)O)c1c(F)cccc1F` [Example 66, (S)-3-([8,8′-bichroman]-5-yl)-2-(2,6-difluorobenzamido)propanoic acid], the EC50 amounted to 120 nM. In the case of `O=C(N[C@@H](Cc1ccc(-c2cccc3c2OCCC3)c2c1CCCO2)C(=O)O)c1c(Cl)cccc1Cl` [Example 67, (S)-3-([8,8′-bichroman]-5-yl)-2-(2,6-dichlorobenzamido)propanoic acid] it was 40.9 nM.

The values above are taken from patent US20220226337A1 (Gilead Sciences, Inc., priority 2018, published 2022).
